Measured values reported in PubChem BioAssay AID1963420 (Molecular Pharmacology Branch, DTP, NCI, 2024).

Test system: 494315-158-R-J1-PDC complex spheroid growth, percent test/control
Experiment: Anticancer human tumor 494315-158-R-J1-PDC patient-derived soft tissue sarcoma cell line growth inhibition [Asc]
Details: for IC50: curve of first compound; for viability, T/C: stronger effect = lower value
In short: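 Spheroid model: tumor line + HUVEC + hMSC. Single agents and combinations; top conc. at/near clinical Cmax (10 microM if undetermined), half-log dilutions. DMSO stocks at 800-fold test concentration.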

[1] = second compound 0.01 µM, first compound 0.0316 µM
[2] = second compound 0.01 µM, first compound 0.1 µM
[3] = second compound 0.01 µM, first compound 0.316 µM
[4] = second compound 0.01 µM, first compound 1 µM
[5] = second compound 0.01 µM, first compound 3.16 µM
[6] = second compound 0.01 µM, first compound 10 µM
[7] = second compound 0.0316 µM, first compound 0.0316 µM
[8] = second compound 0.0316 µM, first compound 0.1 µM
[9] = second compound 0.0316 µM, first compound 0.316 µM
[10] = second compound 0.0316 µM, first compound 1 µM
[11] = second compound 0.0316 µM, first compound 3.16 µM
[12] = second compound 0.0316 µM, first compound 10 µM
[13] = second compound 0.1 µM, first compound 0.0316 µM
[14] = second compound 0.1 µM, first compound 0.1 µM
[15] = second compound 0.1 µM, first compound 0.316 µM
[16] = second compound 0.1 µM, first compound 1 µM
[17] = second compound 0.1 µM, first compound 3.16 µM
[18] = second compound 0.1 µM, first compound 10 µM
[19] = second compound 0.316 µM, first compound 0.0316 µM
[20] = second compound 0.316 µM, first compound 0.1 µM
[21] = second compound 0.316 µM, first compound 0.316 µM
[22] = second compound 0.316 µM, first compound 1 µM
[23] = second compound 0.316 µM, first compound 3.16 µM
[24] = second compound 0.316 µM, first compound 10 µM
[25] = second compound 1 µM, first compound 0.0316 µM
[26] = second compound 1 µM, first compound 0.1 µM
[27] = second compound 1 µM, first compound 0.316 µM
[28] = second compound 1 µM, first compound 1 µM
[29] = second compound 1 µM, first compound 3.16 µM
[30] = second compound 1 µM, first compound 10 µM
[31] = second compound 0.01 µM, first compound 0.00949 µM
[32] = second compound 0.01 µM, first compound 0.03 µM
[33] = second compound 0.01 µM, first compound 0.0949 µM
[34] = second compound 0.01 µM, first compound 0.3 µM
[35] = second compound 0.01 µM, first compound 0.949 µM
[36] = second compound 0.01 µM, first compound 3 µM
[37] = second compound 0.0316 µM, first compound 0.00949 µM
[38] = second compound 0.0316 µM, first compound 0.03 µM
[39] = second compound 0.0316 µM, first compound 0.0949 µM
[40] = second compound 0.0316 µM, first compound 0.3 µM
[41] = second compound 0.0316 µM, first compound 0.949 µM
[42] = second compound 0.0316 µM, first compound 3 µM
[43] = second compound 0.1 µM, first compound 0.00949 µM
[44] = second compound 0.1 µM, first compound 0.03 µM
[45] = second compound 0.1 µM, first compound 0.0949 µM
[46] = second compound 0.1 µM, first compound 0.3 µM
[47] = second compound 0.1 µM, first compound 0.949 µM
[48] = second compound 0.1 µM, first compound 3 µM
[49] = second compound 0.316 µM, first compound 0.00949 µM
[50] = second compound 0.316 µM, first compound 0.03 µM
[51] = second compound 0.316 µM, first compound 0.0949 µM
[52] = second compound 0.316 µM, first compound 0.3 µM
[53] = second compound 0.316 µM, first compound 0.949 µM
[54] = second compound 0.316 µM, first compound 3 µM
[55] = second compound 1 µM, first compound 0.00949 µM
[56] = second compound 1 µM, first compound 0.03 µM
[57] = second compound 1 µM, first compound 0.0949 µM
[58] = second compound 1 µM, first compound 0.3 µM
[59] = second compound 1 µM, first compound 0.949 µM
[60] = second compound 1 µM, first compound 3 µM
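Note: compound exposure lasted seven days after spheroids formed for three days.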

C#Cc1c(F)ccc2cc(O)cc(-c3ncc4c(N5CC6CCC(C5)N6)nc(OCC56CCCN5CC(F)C6)nc4c3F)c12 (stereo not given) + CNC(C)C(=O)NC1CN(S(=O)(=O)c2cccc(S(=O)(=O)N3CCC4CCC(C(=O)NC(c5ccccc5)c5ccccc5)N4C(=O)C(NC(=O)C(C)NC)C3)c2)CCC2CCC(C(=O)NC(c3ccccc3)c3ccccc3)N2C1=O
IC50 (second compound 0.01 µM): > 10000 nM | IC50 (second compound 0.0316 µM): > 10000 nM | IC50 (second compound 0.1 µM): > 10000 nM | IC50 (second compound 0.316 µM): > 10000 nM | IC50 (second compound 1 µM): < 31.6 nM | viability, T/C [1]: 75.8% | viability, T/C [2]: 77.5% | viability, T/C [3]: 78.4% | viability, T/C [4]: 89.3% | viability, T/C [5]: 86.8% | viability, T/C [6]: 82% | viability, T/C [7]: 66.7% | viability, T/C [8]: 59.8% | viability, T/C [9]: 71.6% | viability, T/C [10]: 71.6% | viability, T/C [11]: 76.9% | viability, T/C [12]: 78% | viability, T/C [13]: 53.5% | viability, T/C [14]: 65.6% | viability, T/C [15]: 65.3% | viability, T/C [16]: 65.4% | viability, T/C [17]: 72.4% | viability, T/C [18]: 70.7% | viability, T/C [19]: 47.8% | viability, T/C [20]: 48.1% | viability, T/C [21]: 52.7% | viability, T/C [22]: 51.9% | viability, T/C [23]: 51.4% | viability, T/C [24]: 69.5% | viability, T/C [25]: 37.6% | viability, T/C [26]: 43.8% | viability, T/C [27]: 39.4% | viability, T/C [28]: 45.8% | viability, T/C [29]: 55.5% | viability, T/C [30]: 55.6%

C=C(F)C(=O)N1CCN(c2nc(OCC3CCCN3C)nc3c2CCN(c2cccc4cccc(Cl)c24)C3)CC1CC#N (stereo not given) + CNC(C)C(=O)NC1CN(S(=O)(=O)c2cccc(S(=O)(=O)N3CCC4CCC(C(=O)NC(c5ccccc5)c5ccccc5)N4C(=O)C(NC(=O)C(C)NC)C3)c2)CCC2CCC(C(=O)NC(c3ccccc3)c3ccccc3)N2C1=O
IC50 (second compound 0.01 µM): 1560 nM | IC50 (second compound 0.0316 µM): 513 nM | IC50 (second compound 0.1 µM): 1020 nM | IC50 (second compound 0.316 µM): < 31.6 nM | IC50 (second compound 1 µM): < 31.6 nM | viability, T/C [1]: 68.7% | viability, T/C [2]: 70.6% | viability, T/C [3]: 61.5% | viability, T/C [4]: 62.9% | viability, T/C [5]: 30.8% | viability, T/C [6]: 0.15% | viability, T/C [7]: 51.8% | viability, T/C [8]: 56.5% | viability, T/C [9]: 46.2% | viability, T/C [10]: 48.5% | viability, T/C [11]: 20.6% | viability, T/C [12]: 0.13% | viability, T/C [13]: 50.7% | viability, T/C [14]: 48% | viability, T/C [15]: 52.3% | viability, T/C [16]: 51.7% | viability, T/C [17]: 18.9% | viability, T/C [18]: 0.11% | viability, T/C [19]: 44.9% | viability, T/C [20]: 43.4% | viability, T/C [21]: 38.8% | viability, T/C [22]: 45.7% | viability, T/C [23]: 12.8% | viability, T/C [24]: 0.11% | viability, T/C [25]: 34.3% | viability, T/C [26]: 39.9% | viability, T/C [27]: 36.7% | viability, T/C [28]: 39.8% | viability, T/C [29]: 8.22% | viability, T/C [30]: 0.18%

C=CC(=O)N1CCN(c2nc(=O)n(-c3c(C)ccnc3C(C)C)c3nc(-c4c(O)cccc4F)c(F)cc23)C(C)C1 (stereo not given) + CNC(C)C(=O)NC1CN(S(=O)(=O)c2cccc(S(=O)(=O)N3CCC4CCC(C(=O)NC(c5ccccc5)c5ccccc5)N4C(=O)C(NC(=O)C(C)NC)C3)c2)CCC2CCC(C(=O)NC(c3ccccc3)c3ccccc3)N2C1=O
IC50 (second compound 0.01 µM): > 10000 nM | IC50 (second compound 0.0316 µM): > 10000 nM | IC50 (second compound 0.1 µM): > 10000 nM | IC50 (second compound 0.316 µM): < 31.6 nM | IC50 (second compound 1 µM): < 31.6 nM | viability, T/C [1]: 72.5% | viability, T/C [2]: 70.5% | viability, T/C [3]: 74.1% | viability, T/C [4]: 69.5% | viability, T/C [5]: 78.4% | viability, T/C [6]: 57.8% | viability, T/C [7]: 58.2% | viability, T/C [8]: 60.8% | viability, T/C [9]: 57.6% | viability, T/C [10]: 73.5% | viability, T/C [11]: 59.5% | viability, T/C [12]: 45.2% | viability, T/C [13]: 53.2% | viability, T/C [14]: 54% | viability, T/C [15]: 62.1% | viability, T/C [16]: 55.4% | viability, T/C [17]: 60.3% | viability, T/C [18]: 42.5% | viability, T/C [19]: 49% | viability, T/C [20]: 50.1% | viability, T/C [21]: 46.2% | viability, T/C [22]: 45.8% | viability, T/C [23]: 51.5% | viability, T/C [24]: 42.2% | viability, T/C [25]: 45.2% | viability, T/C [26]: 49.7% | viability, T/C [27]: 44.9% | viability, T/C [28]: 35.3% | viability, T/C [29]: 38.8% | viability, T/C [30]: 40.9%

CCN1C(C(=O)NC23CCC(C(=O)O)(CC2)CC3)C(c2cccc(Cl)c2F)C2(C(=O)Nc3cc(Cl)ccc32)C12CCCCC2 (stereo not given) + CNC(C)C(=O)NC1CN(S(=O)(=O)c2cccc(S(=O)(=O)N3CCC4CCC(C(=O)NC(c5ccccc5)c5ccccc5)N4C(=O)C(NC(=O)C(C)NC)C3)c2)CCC2CCC(C(=O)NC(c3ccccc3)c3ccccc3)N2C1=O
IC50 (second compound 0.01 µM): > 3000 nM | IC50 (second compound 0.0316 µM): > 3000 nM | IC50 (second compound 0.1 µM): 539 nM | IC50 (second compound 0.316 µM): 44.6 nM | IC50 (second compound 1 µM): < 9.49 nM | viability, T/C [31]: 66.2% | viability, T/C [32]: 77.9% | viability, T/C [33]: 66.8% | viability, T/C [34]: 73.7% | viability, T/C [35]: 67.5% | viability, T/C [36]: 57.8% | viability, T/C [37]: 57.3% | viability, T/C [38]: 62.8% | viability, T/C [39]: 61.5% | viability, T/C [40]: 71% | viability, T/C [41]: 60.6% | viability, T/C [42]: 51.4% | viability, T/C [43]: 51.4% | viability, T/C [44]: 53.4% | viability, T/C [45]: 56.5% | viability, T/C [46]: 52% | viability, T/C [47]: 47.1% | viability, T/C [48]: 39.3% | viability, T/C [49]: 53.9% | viability, T/C [50]: 55.3% | viability, T/C [51]: 49.8% | viability, T/C [52]: 39.5% | viability, T/C [53]: 41% | viability, T/C [54]: 45.4% | viability, T/C [55]: 39.6% | viability, T/C [56]: 45.6% | viability, T/C [57]: 44.5% | viability, T/C [58]: 38.7% | viability, T/C [59]: 35.7% | viability, T/C [60]: 33%

Cc1nc(N2CCC3(CC2)COC(C)C3N)c(CO)nc1Sc1ccnc(N)c1Cl (stereo not given) + CNC(C)C(=O)NC1CN(S(=O)(=O)c2cccc(S(=O)(=O)N3CCC4CCC(C(=O)NC(c5ccccc5)c5ccccc5)N4C(=O)C(NC(=O)C(C)NC)C3)c2)CCC2CCC(C(=O)NC(c3ccccc3)c3ccccc3)N2C1=O
IC50 (second compound 0.01 µM): > 3000 nM | IC50 (second compound 0.0316 µM): > 3000 nM | IC50 (second compound 0.1 µM): 941 nM | IC50 (second compound 0.316 µM): < 9.49 nM | IC50 (second compound 1 µM): < 9.49 nM | viability, T/C [31]: 72.2% | viability, T/C [32]: 59.6% | viability, T/C [33]: 64.1% | viability, T/C [34]: 60.8% | viability, T/C [35]: 62.7% | viability, T/C [36]: 52.1% | viability, T/C [37]: 60.7% | viability, T/C [38]: 69.7% | viability, T/C [39]: 64.3% | viability, T/C [40]: 55.6% | viability, T/C [41]: 60.8% | viability, T/C [42]: 51% | viability, T/C [43]: 59.7% | viability, T/C [44]: 55.6% | viability, T/C [45]: 50.6% | viability, T/C [46]: 49.1% | viability, T/C [47]: 59.1% | viability, T/C [48]: 43.7% | viability, T/C [49]: 48.3% | viability, T/C [50]: 48.6% | viability, T/C [51]: 47.2% | viability, T/C [52]: 37.1% | viability, T/C [53]: 42.8% | viability, T/C [54]: 49.5% | viability, T/C [55]: 38.7% | viability, T/C [56]: 44.2% | viability, T/C [57]: 44.3% | viability, T/C [58]: 36.8% | viability, T/C [59]: 40% | viability, T/C [60]: 39.2%
